# System: dox-inducible GFP expression cassette
# Experiment: Dox-inducible GFP expression cassette integrated into AAVS1 locus of iPSCs
# Assay type: cell-based, human
# Description: This Example describes an experiment in which a green fluorescent protein expression cassette was integrated into the AAVS1 gene locus as illustrated in FIG. 21. AAVS1 ZFN mRNA and donor plasmid were delivered into iPSCs via electroporation on Day −7. One week later (Day 0), puromycin was added (0.3 μg/mL) to the tissue culture to begin positive selection for cells having undergone targeted integration. Doxycycline was added at Day 15 and maintained in culture at 3 different doses (0.3, 1, and 3 μg/mL) to induce expression of the dox-inducible GFP expression cassette. […] Cells were maintained in the presence of doxycycline for 13 days. During this period, the 3 μg/mL dose of doxycycline yielded the highest level of inducible GFP transgene expression (94%; FIG. 22). This high level of expression was sustained while doxycycline was present in culture. Cells were maintained in puromycin as well as doxycycline from Day 15-28 and were further positively selected (increase from ˜50% to ˜70% of alleles with targeted integration).
Structure (SMILES),"Alleles with targeted integration after positive selection (puromycin as well as doxycycline, Day 15-28, increase from ~50%) [%]","Inducible GFP transgene expression (3 μg/mL doxycycline, iPSCs, maintained 13 days) [%]"
COc1ccc(C[C@H](N)C(=O)N[C@H]2[C@@H](O)[C@H](n3cnc4c(N(C)C)ncnc43)O[C@@H]2CO)cc1 [puromycin],~70,–
C[C@H]1c2cccc(O)c2C(=O)C2=C(O)[C@]3(O)C(=O)C(C(N)=O)=C(O)[C@@H](N(C)C)[C@@H]3[C@@H](O)[C@@H]21 [doxycycline],–,94

# Source: US20230392118A1, “GENERATION OF CD4+ EFFECTOR AND REGULATORY T CELLS FROM HUMAN PLURIPOTENT STEM CELLS” (Sangamo Therapeutics, Inc., priority 2020, published 2023)
